Data published in patent US11400106B2, “Methods for inhibiting microbe growth” (priority 2018, dated 2022).
Like-named read-outs stand apart in the source and are kept apart here.

How the values were obtained:
[1] = tested on: E. coli; assay: microbe, parasite or virus in culture; assay type: cell-based, Escherichia coli; conditions: for MIC: Escherichia coli, 18 h, read-out: MIC, E. coli, MHB−
Procedure: (§1) In the following experiments, bacterial cells were cultured in 96-well microtiter plates in cation-adjusted Mueller-Hinton Broth (MHB) for 18 h at 37° C. The main strains used were E. coli (K-12 BW25113) (placed in stationary incubator) and S. aureus (Newman Strain) (incubated at 250 r.p.m). Knockout strains (ΔtolcC and ΔychM) were used from the Keio knockout collection (Baba et al., Construction of Escherichia coli K-12 in-frame, single-gene knockout mutants: the Keio collection. Mol Syst Biol 2, 2006 0008, doi:10.1038/msb4100050 (2006)). For MIC determination and checkerboard analyses, Clinical & Laboratory Standards Institute (CLSI) protocol was used. […] DiSC3 loading of S. aureus cells was performed as previously described (Farha et al., Collapsing the proton motive force to identify synergistic combinations against Staphylococcus aureus. Chemistry & biology 20, 1168-1178, doi:10.1016/j.chembiol.2013.07.006 (2013)). CCCP concentration of 20 μM was used. pH adjustments were made by addition of HCl or NaOH. INT assay and ATP bioluminescence assays were performed as previously described (Farha et al., Collapsing the proton motive force to identify synergistic combinations against Staphylococcus aureus. Chemistry & biology 20, 1168-1178, doi:10.1016/j.chembiol.2013.07.006 (2013)). For chemical-genomic studies, the Keio library was grown overnight in cation-adjusted MHB broth, in 384-well plates. From these, treatment plates (25 mM sodium bicarbonate, or a sterile water control) were inoculated and grown for 15 hours at 37° C., in a stationary incubator. Data was normalized according to Mangat et al (Mangat et al., Rank ordering plate data facilitates data visualization and normalization in high-throughput screening. J Biomol Screen 19, 1314-1320, doi:10.1177/1087057114534298 (2014)), with gene products and GO terms mined from EcoCyc. The GFP promoter library (Keseler et al., EcoCyc: fusing model organism databases with systems biology. Nucleic Acids Res 41, D605-612, doi:10.1093/nar/gks1027 (2013)) was grown for 18 hours at ambient temperature with the same inoculation strategy as with the Keio collection. The analysis pipeline of Zaslaver et al (Zaslaver et al., A comprehensive library of fluorescent transcriptional reporters for Escherichia coli. Nat Methods 3, 623-628, doi:10.1038/nmeth895 (2006)) was used to generate maps of promoter activity, from which lists of promoters with increased or decreased activity were compiled.
(§2) Fold enhancement in MICs in the media supplemented with sodium bicarbonate is represented by a positive fold, whereas suppression of activity is represented by a negative fold.
(§3) The effect of sodium bicarbonate on the activity of additional antibacterial agents was investigated. Clinical isolates of various bacteria were obtained from the ATCC and the IHMA.
(§4) The effect of sodium bicarbonate on the activity of cationic antiseptic agents was investigated. Clinical isolates of various bacteria were obtained from the ATCC and the IHMA.

[2] = tested on: S. aureus; assay: microbe, parasite or virus in culture; conditions: for MIC: Staphylococcus aureus, 18 h, read-out: MIC, S. aureus, MHB−; for MIC, S. aureus, MHB: MHB in the absence of sodium bicarbonate; for Fold, S. aureus: fold shift in MIC; for effect of 25 mM sodium bicarbonate on antibacterial activity: result in words
Procedure: as §1, §2, §3, §4

[3] = MHB in the absence of sodium bicarbonate
[4] = antibiotic agents, MHB in the absence of sodium bicarbonate
[5] = antibiotic agents, MHB in the presence of 25 mM sodium bicarbonate
[6] = MHB in the presence of 25 mM sodium bicarbonate
[7] = antiseptic agents, MHB in the presence of 25 mM sodium bicarbonate

Compound	MIC [1, 3] [µg/mL]	MIC, S. aureus, MHB+ [2]	MIC [2] [µg/mL]	MIC, E. coli, MHB+ [1]	MIC [1, 4] [µg/mL]	further results
CCn1cc(C(=O)O)c(=O)c2cc(F)c(N3CCNCC3)cc21 [Norfloxacin]	0.125	1	0.5	–	–	–
Cc1onc(-c2ccccc2)c1C(=O)N[C@@H]1C(=O)N2[C@@H]1SC(C)(C)[C@@H]2C(=O)O [Oxacillin]	256	1	0.0625	–	–	–
NC[C@@H]1O[C@H](O[C@H]2[C@@H](O)[C@H](O[C@@H]3[C@@H](O)[C@H](N)C[C@H](N)[C@H]3O[C@H]3O[C@H](CO)[C@@H](O)[C@H](O)[C@H]3N)O[C@@H]2CO)[C@H](N)[C@@H](O)[C@@H]1O [Paromomycin]	2	2	2	–	–	–
CCN1CCN(C(=O)N[C@@H](C(=O)N[C@@H]2C(=O)N3[C@@H]2SC(C)(C)[C@@H]3C(=O)O)c2ccccc2)C(=O)C1=O [Piperacillin]	2	1	0.25	–	–	–
C=C[C@]1(C)C[C@@H](OC(=O)CO)[C@]2(C)[C@H](C)CC[C@]3(CCC(=O)[C@H]32)[C@@H](C)[C@@H]1O [Pleuromutilin]	–	1 μg of antimicrobial agent/mL of buffer	1	>128 μg of antimicrobial agent/mL of buffer	> 128	–
CC(C)C[C@H](NC(=O)[C@H](CCCNC(=N)N)NC(=O)CNC(=O)CNC(=O)[C@@H](N)CCCNC(=N)N)C(=O)N[C@H]1CSSC[C@@H](C(=O)N[C@H](C(=O)NCC(=O)N[C@@H](CCCNC(=N)N)C(N)=O)C(C)C)NC(=O)[C@H](C(C)C)NC(=O)[C@@H]2CSSC[C@H](NC(=O)[C@H](Cc3ccc(O)cc3)NC1=O)C(=O)N[C@@H](CCCNC(=N)N)C(=O)N[C@@H](CCCNC(=N)N)C(=O)N[C@@H](CCCNC(=N)N)C(=O)N[C@@H](Cc1ccccc1)C(=O)N2 [Protegrin]	–	–	–	–	–	enhancement of antimicrobial activity in the presence of bicarbonate [1]: 8 fold; enhancement of antimicrobial activity in the presence of bicarbonate ([2]; S. aureus, 25 mM sodium bicarbonate): 8 fold
CO[C@H]1/C=C/O[C@@]2(C)Oc3c(C)c(O)c4c(O)c(c(/C=N/N5CCN(C)CC5)c(O)c4c3C2=O)NC(=O)/C(C)=C\C=C\[C@H](C)[C@H](O)[C@@H](C)[C@@H](O)[C@@H](C)[C@H](OC(C)=O)[C@@H]1C [Rifampicin]	32	0.031	0.0078	–	–	–
C[C@@H]1CN(c2c(F)c(N)c3c(=O)c(C(=O)O)cn(C4CC4)c3c2F)C[C@H](C)N1 [Sparfloxacin]	–	0.25 μg of antimicrobial agent/mL of buffer	0.125	32 μg of antimicrobial agent/mL of buffer	16	–
CN[C@@H]1[C@H](O)[C@H](NC)[C@H]2O[C@@]3(O)C(=O)C[C@@H](C)O[C@H]3O[C@@H]2[C@H]1O [Spectinomycin]	16	8	64	–	–	–
CC[C@H]1OC(=O)[C@H](C)C(=O)[C@H](C)[C@@H](O[C@@H]2O[C@H](C)C[C@H](N(C)C)[C@H]2O)[C@](C)(OC)C[C@@H](C)C(=O)[C@H](C)[C@H]2N(CCCCn3cnc(-c4cccnc4)c3)C(=O)O[C@]12C [Telithromycin]	–	0.5 μg of antimicrobial agent/mL of buffer	4	16 μg of antimicrobial agent/mL of buffer	> 128	–
C=C(NC(=O)C(=C)NC(=O)c1csc(C2=N[C@@H]3c4csc(n4)[C@H]4NC(=O)c5csc(n5)[C@H]([C@](C)(O)[C@@H](C)O)NC(=O)[C@H]5CSC(=N5)/C(=C/C)NC(=O)[C@H]([C@@H](C)O)NC(=O)c5csc(n5)[C@]3(CC2)NC(=O)[C@H](C)NC(=O)C(=C)NC(=O)[C@H](C)NC(=O)[C@H]([C@@H](C)CC)N[C@@H]2C=Cc3c([C@H](C)O)cc(nc3[C@H]2O)C(=O)O[C@@H]4C)n1)C(N)=O [Thiostrepton]	–	–	0.5	–	–	MIC [1]: > 128 µg/mL; MIC, E. coli, MHB+ [1, 5]: >128 μg of antimicrobial agent/mL of buffer; MIC, S. aureus, MHB+ [2, 5]: 0.12 μg of antimicrobial agent/mL of buffer
CC1(C)S[C@@H]2[C@H](NC(=O)[C@H](C(=O)O)c3ccsc3)C(=O)N2[C@H]1C(=O)O [Ticarcillin]	–	32 μg of antimicrobial agent/mL of buffer	8	64 μg of antimicrobial agent/mL of buffer	32	–
NC[C@H]1O[C@H](O[C@H]2[C@H](O)[C@@H](O[C@H]3O[C@H](CO)[C@@H](O)[C@H](N)[C@H]3O)[C@H](N)C[C@@H]2N)[C@H](N)C[C@@H]1O [Tobramycin]	–	0.5 μg of antimicrobial agent/mL of buffer	0.25	0.25 μg of antimicrobial agent/mL of buffer	0.25	–
Oc1cc(Cl)ccc1Oc1ccc(Cl)cc1Cl [Triclosan]	–	0.062 μg of antimicrobial agent/mL of buffer	0.062	0.125 μg of antimicrobial agent/mL of buffer	0.125	–
CN[C@H](CC(C)C)C(=O)N[C@H]1C(=O)N[C@@H](CC(N)=O)C(=O)N[C@H]2C(=O)N[C@H]3C(=O)N[C@H](C(=O)N[C@H](C(=O)O)c4cc(O)cc(O)c4-c4cc3ccc4O)[C@H](O)c3ccc(c(Cl)c3)Oc3cc2cc(c3O[C@@H]2O[C@H](CO)[C@@H](O)[C@H](O)[C@H]2O[C@H]2C[C@](C)(N)[C@H](O)[C@H](C)O2)Oc2ccc(cc2Cl)[C@H]1O [Vancomycin]	–	–	1	–	–	MIC [1]: 256 µg/mL; MIC, E. coli, MHB+ [1, 6]: 256; MIC, S. aureus, MHB+ [2, 6]: 4
O=C(O)c1ccc(O)cc1 [p-hydroxybenzoate]	–	–	–	64 μg of antimicrobial agent/mL of buffer	–	Fold, E. coli [1]: 1; MIC, E. coli, MHB [1]: 64 μg of antimicrobial agent/mL of buffer; MIC, S. aureus, MHB ([2]; antiseptic agents): 16 μg of antimicrobial agent/mL of buffer; MIC, S. aureus, MHB+ [2, 7]: 16 μg of antimicrobial agent/mL of buffer; Fold, S. aureus ([2]; antiseptic agents): 1
Cc1cc(NS(=O)(=O)c2ccc(N)cc2)no1 [sulfamethoxazole]	–	–	–	–	–	effect of 25 mM sodium bicarbonate on antibacterial activity [1]: remained largely unchanged; effect of 25 mM sodium bicarbonate on antibacterial activity ([2]; S. aureus): remained largely unchanged
COc1cc(Cc2cnc(N)nc2N)cc(OC)c1OC [trimethoprim]	–	–	–	–	–	effect of 25 mM sodium bicarbonate on antibacterial activity [1]: remained largely unchanged; effect of 25 mM sodium bicarbonate on antibacterial activity ([2]; S. aureus): remained largely unchanged
Benzalkonium chloride	–	–	–	8 μg of antimicrobial agent/mL of buffer	–	Fold, E. coli [1]: 4; MIC, E. coli, MHB [1]: 32 μg of antimicrobial agent/mL of buffer; MIC, S. aureus, MHB ([2]; antiseptic agents): 0.5 μg of antimicrobial agent/mL of buffer; MIC, S. aureus, MHB+ [2, 7]: 0.25 μg of antimicrobial agent/mL of buffer; Fold, S. aureus ([2]; antiseptic agents): 2
